Experimental data published in US20150065556A1, “THERAPEUTIC TARGETS FOR MITOCHONDRIAL DISORDERS” (Whitehead Institute for Biomedical Research, priority 2013, published 2015).
Entries after “also recorded” stand apart in the source; their conditions may differ.

Key:
[1] = test system: KBM7 cells; assay: Viability/proliferation of wild type and ATPIF1 null KBM7 cells treated with mitochondrial poisons (7-AAD, FACS); format: cell-based, human; details: for resistance of ATPIF1 null KBM7 cells to the poison: viability four days later, FIG. 1C-D, FIG. 2; for viability of ATPIF1 KO vs WT KBM7 cells in response to ETC inhibitors: 7AAD, FIG. 8A
From the text: In order to identify potential drug targets for treatment of mitochondrial disorders, we decided to use inhibitors of oxidative phosphorylation (OXPHOS) to model mitochondrial diseases and search for genes, loss-of-function of which can confer resistance to mitochondrial dysfunction caused by the poison. To that end, we explored use of a screening platform based on gene inactivation in human cells using insertional mutagenesis that has recently been developed using the KBM7 CML cell line, which is haploid for all chromosomes except chromosome 8 (5). In this system, insertional mutagenesis is accomplished using a gene trap vector. […]
For the viability assays described in this Example and Example 2, 200,000 cells were used for each sample. Cells were treated with the desired concentration of drug and viability was assessed four days later using 7-AAD and FACS analysis.
(§1) Suspension cells were kept on ice, then spun at 4000 rpm for 5 minutes at 4° C. in a table-top microcentrifuge, supernatant aspirated, cells washed once with ice-cold PBS, resuspended in ice-cold PBS with 2 ug/mL 7-AAD viability dye, incubated for 5 minutes on ice, and analyzed by FACS. For adherent cells, the overlying media and PBS used for pre-trypsinization washes was collected and combined with the suspension of trypsinized cells to gather any dead cells that may have detached into the media. The cell suspensions were kept on ice, spun at 1500 rpm for 5 minutes at 4° C. in a swinging bucket centrifuge, supernatant aspirated, cells washed once with ice-cold PBS, resuspended in ice-cold PBS with 2 ug/mL 7-AAD viability dye, incubated for 5 minutes on ice, and analyzed by FACS. Viability was assessed by 7-AAD exclusion. For HeLa, SH-SY5Y, and Malme-3M cells, 500-2,000 cells were seeded per well of white, clear-bottom 96-well plates (Greiner Bio-One), treated with drugs, and then analyzed using CellTiter-Glo according to the manufacturer's instructions (Promega). For primary hepatocytes, 100,000 cells were seeded per well of a 24-well TPP plate (Light Labs), treated with antimycin, and then analyzed using CellTiter-Glo.

[2] = test system: KBM7 cells; assay: ddI-induced mtDNA depletion in WT and IF1 KO KBM7 cells (proliferation, mtDNA copy number, ATPIF1 protein); format: cell-based, human
From the text: mtDNA was extracted using a QiaAmp DNA Mini Kit (Qiagen) and primers specific to the mitochondrial gene ND1 and the nuclear gene Actb were used in conjunction with a SyBr Green Kit (AB) according to the manufacturer's instructions. The ratio of ND1 copies to Actb copies was used to assess the relative mtDNA/nuclear DNA copy numbers between different samples. In some experiments primers targeting the mitochondrial gene ND1 and the nuclear gene RUNX2 were used to assess mtDNA copy number by normalizing ct values of ND1 to those of RUNX2: ND1_F, CCCTAAAACCCGCCACATCT (SEQ ID NO. 14); ND1_R, GAGCGATGGTGAGAGCTAAGGT (SEQ ID NO. 15); RUNX2_F, CGCATTCCTCATCCCAGTATG (SEQ ID NO. 16); RUNX2_R, AAAGGACTTGGTGCAGAGTTCAG (SEQ ID NO. 17). Relative differences between samples were determined using the comparative Ct method.
KBM7 cells were cultured in IMDM supplemented with 10% IFS and penicillin/streptomycin, except for studies using tigecycline in which they were cultured in RPMI-1640. SH-SY5Y, HeLa, Malme-3M cells were cultured in DMEM supplemented with 10% FBS and penicillin/streptomycin. HeLa WT, HeLa ρ^0, and KBM7 cells used for ddI experiments were grown in DMEM supplemented with 10% FBS, penicillin/streptomycin, and 100 μg/mL uridine. Primary hepatocytes were cultured in Medium 199 supplemented with 10% FBS, penicillin/streptomycin, and GlutaMAX. KBM7, HeLa WT, and HeLa ρ^0 cells stably overexpressing ATPIF1 (WT or E55A) were generated via infection with retroviruses and selected with blasticidin (10 μg/mL) for three days. Malme-3M cells stably overexpressing RAP2A or ATPIF1 were generated by infection with lentiviruses expressing the corresponding cDNAs, followed by selection with puromycin (2 μg/mL) for three days. KBM7, SH-SY5Y, and HeLa cells expressing shLuc or shATPIF1 were generated by infection with lentiviruses expressing the corresponding shRNAs. All cells were infected with spin-infection using a 30 minute spin at 2,250 rpm in media containing polybrene (4 μg/mL), followed by selection one day later.
Failure to maintain proper amounts of the mitochondrial genome is a distinctive feature of a class of severe respiratory chain disorders known as mtDNA depletion syndromes (Lee and Sokol, 2007). Because of our interest in ATPIF1 inhibition as a potential strategy for ameliorating severe ETC dysfunction, we asked if loss of ATPIF1 alone was sufficient to improve cell viability during progressive mtDNA depletion. To do this, we exposed WT and IF1 KO KBM7 cells for 50 days to the drug 2′,3′-dideoxyinosine (ddI), an inhibitor of mtDNA replication, which depletes cells of their mtDNA (Lewis et al., 2003; Walker et al., 2002).

[3] = test system: KBM7 cells; assay: Mitochondrial membrane potential (TMRM staining, FACS) in WT and ATPIF1 KO KBM7 cells; format: cell-based, human; details: for rescue by loss of ATPIF1 of the loss of mitochondrial membrane potential caused by the poison: FIG. 4, TMRM
Method: Membrane potential was assessed using tetramethyl rhodamine methyl ester (TMRM). For the TMRM time course: 200,000 cells were used for each time point. Cells were treated with 121 uM antimycin and incubated in 25 nM TMRM (final concentration) in IMDM 20 minutes from the end of their time point at 37° C. and then analyzed by FACS analysis. Dead cells were excluded using 7-AAD.
(§2) 200,000 cells were stained with 25 nM TMRM dye (Invitrogen) in parent media of cells. In the case of adherent cells, 10 uM verapamil (Sigma-Aldrich) was added to help retention of the dye. For suspension cells, the incubation of the dye was done for 30 minutes at 37° C., whereas for adherent cells, the incubation was done for 1 hour at 37° C. Suspension cells were kept on ice, then spun at 4000 rpm for 5 minutes at 4° C. in a table-top microcentrifuge, supernatant aspirated, cells washed once with ice-cold PBS, resuspended in ice-cold PBS with 2 ug/mL 7-AAD viability dye, incubated for 5 minutes on ice, and analyzed by FACS. Only 7-AAD negative live cells were analyzed. Adherent cells were first trypsinized, kept on ice, spun at 4000 rpm for 5 minutes at 4° C. in a table-top microcentrifuge, supernatant aspirated, cells washed once with ice-cold PBS, resuspended in ice-cold PBS with 2 ug/mL 7-AAD viability dye, incubated for 5 minutes on ice, and analyzed by FACS. Only 7-AAD negative live cells were analyzed.
(§3) FACS assays. For measurements of ΔΨm, 100,000 cells were incubated with TMRM (25 nM) and the indicated amounts of drugs for the indicated amounts of time before collection. For measurements of mitochondrial mass, 100,000 cells were incubated with MitoTracker Green FM (50 nM) for one hour. For primary hepatocytes, cells were assayed in suspension immediately after harvest from the liver and incubated with verapamil (20 μM) to facilitate retention of TMRM and MitoTracker Green FM signals. Afterwards, cells were collected by centrifugation, washed once with PBS, and resuspended in PBS with 7-AAD (2 μg/mL) for analysis. KBM7 cells and primary hepatocytes were centrifuged at 2000 rpm for 5 minutes and 500 rpm for 5 minutes at 4° C., respectively.

[4] = test system: KBM7 cells; assay: Cellular ATP (CellTiterGlo) in WT and ATPIF1 KO KBM7 cells; format: cell-based, human
Method: (§4) Equal numbers of cells were plated and ATP was determined using a CellTiterGlo assay (Promega) according to the manufacturer's instructions.

[5] = test system: COX1 mutant cells; assay: MMP and viability of cybrid cells with mtDNA from a patient with a deficiency in COX1; format: cell-based, human; details: FIG. 7E
Method: as §2
(§5) Suspension cells were kept on ice, then spun at 4000 rpm for 5 minutes at 4° C. in a table-top microcentrifuge, supernatant aspirated, cells washed once with ice-cold PBS, resuspended in ice-cold PBS with 2 ug/mL 7-AAD viability dye, incubated for 5 minutes on ice, and analyzed by FACS. […] Viability was assessed by 7-AAD exclusion. […]

[6] = test system: cybrid cells having mtDNA derived from a normal (WT) subject; assay: MMP and viability of cybrid cells with mtDNA from a normal (WT) subject; format: cell-based, human; details: FIG. 7E
Method: as §2, §5

[7] = test system: KBM7 cells; assay: Metabolite profiling of WT and IF1 KO KBM7 cells after antimycin treatment; format: cell-based, human; details: after 1 hour of antimycin treatment; FIG. 7D as printed
Method: 4 million KBM7 cells were centrifuged at 1500 rpm for 4 minutes at 4° C. in a swinging bucket centrifuge after the desired drug treatments. The supernatant was decanted and the cell pellet kept on dry ice. Each cell pellet was washed twice with ice-cold PBS. 3 mL of 80% ice-cold MeOH was then added to each pellet and the pellet vigorously resuspended. Samples were then submitted to the Broad Institute Metabolomics Platform for further processing and analysis.

[8] = test system: Malme-3M cells; assay: Viability of Malme-3M cells overexpressing ATPIF1 treated with antimycin (CellTiter-Glo); format: cell-based; details: antimycin for 4 days; FIG. 7G
Method: as §1, with “CellTiter-Glo. […]” for “CellTiter-Glo.”

[9] = test system: primary hepatocytes; assay: ATP, ΔΨm and viability of WT and ATPIF1−/− primary hepatocytes treated with antimycin; format: cell-based, mice
Method: as §4, §1
as §3, with “KBM7 cells and primary hepatocytes were centrifuged at 2000 rpm for 5 minutes and 500 rpm for 5 minutes at 4° C., respectively.” left out

[10] = initial days of ddI treatment (Early)

N#CC(C#N)=NNc1ccc(OC(F)(F)F)cc1 [FCCP, carbonylcyanide p-trifluoromethoxyphenylhydrazone]
resistance of ATPIF1 null KBM7 cells to the poison ([1]; 7-AAD): resistant

C[n+]1ccc(-c2ccccc2)cc1 [MPP+, 1-methyl-4-phenylpyridinium]
viability of ATPIF1 KO vs WT KBM7 cells in response to ETC inhibitors [1]: cells lacking ATPIF1 have increased viability as compared to wild type cells

O=C(CC(=O)C(F)(F)F)c1cccs1 [TTFA]
resistance of ATPIF1 null KBM7 cells to the poison ([1]; 7-AAD): resistant

OC[C@@H]1CC[C@H](n2cnc3c(O)ncnc32)O1 [ddI, 2′,3′-dideoxyinosine]
mtDNA of WT and ATPIF1_KO KBM7 cells ([2]; by about day 25 of ddI treatment (Middle)): trace amounts of mtDNA
proliferation of ATPIF1_KO vs WT KBM7 cells ([2]; ddI, Middle (days 19-34)): significantly faster rate of proliferation
cell proliferation of WT and ATPIF1_KO KBM7 cells [2, 10]: decrease in cell proliferation
mtDNA copy number of WT and ATPIF1_KO KBM7 cells [2, 10]: immediate decrease in mtDNA copy number
ATPIF1 protein levels and activity of WT KBM7 cells ([2]; long-term exposure to ddI, FIG. 8E): greatly reduced ATPIF1 protein levels and activity

CC[C@H]1/C=C/C=C/C[C@@H](C)[C@H](O)[C@@](C)(O)C(=O)[C@@H](C)[C@H](O)[C@@H](C)C(=O)[C@@H](C)[C@H](O)[C@@H](C)/C=C/C(=O)O[C@@H]2[C@H](C)[C@H](CC1)O[C@]1(CC[C@H](C)[C@H](C[C@@H](C)O)O1)[C@H]2C [oligomycin]
survival of antimycin-treated IF1 KO KBM7 cells on addition of oligomycin ([1]; oligomycin added to antimycin, 7-AAD, FIG. 7D): decreased survival
rescue by loss of ATPIF1 of the loss of mitochondrial membrane potential caused by the poison [3]: not rescued
MMP (ΔΨm) of antimycin-treated IF1 KO KBM7 cells on addition of oligomycin ([3]; oligomycin added to antimycin): completely prevents IF1 KO cells from rescuing their MMP; also recorded: decreased ΔΨm
ATP of antimycin-treated IF1 KO KBM7 cells on addition of oligomycin ([4]; oligomycin added to antimycin): completely prevents IF1 KO cells from rescuing their MMP and using ATP; also recorded: increased ATP levels
MMP of cells having patient-derived (COX1 deficient) mtDNA [5]: dramatic decrease in MMP
viability of cells having patient-derived (COX1 deficient) mtDNA [5]: kills the cells having patient-derived mtDNA
MMP and viability of cells having mtDNA derived from healthy subjects (WT) [6]: not cells having mtDNA derived from healthy subjects

C/C=C(\C)[C@H](O)[C@H](C)/C=C(C)/C=C/C/C(C)=C/Cc1nc(OC)c(OC)c(O)c1C [piercidin A, Piericidin A]
viability of ATPIF1 KO vs WT KBM7 cells in response to ETC inhibitors [1]: cells lacking ATPIF1 have increased viability as compared to wild type cells
resistance of ATPIF1 null KBM7 cells to the poison ([1]; 7-AAD): resistant

CN(C)c1cc(NC(=O)CNC(C)(C)C)c(O)c2c1C[C@H]1C[C@H]3[C@H](N(C)C)C(O)=C(C(N)=O)C(=O)[C@@]3(O)C(O)=C1C2=O [tigecycline]
viability of ATPIF1 KO vs WT KBM7 cells in response to ETC inhibitors [1]: cells lacking ATPIF1 have increased viability as compared to wild type cells

antimycin A
proliferation of clone 18 (ATPIF1 null) KBM7 cells ([1]; antimycin A 121 μm, FIG. 1D): clone 18 cells continue proliferating
proliferation of wild type KBM7 cells ([1]; antimycin A 121 μm, FIG. 1D): wild type cells cease proliferating
resistance of ATPIF1 null KBM7 cells to the poison ([1]; 7-AAD): marked resistance
rescue by loss of ATPIF1 of the loss of mitochondrial membrane potential caused by the poison [3]: rescued (in part)
MMP in IF1 KO KBM7 cells ([3]; antimycin exposure, FIG. 7B): significant recovery in MMP after loss of MMP
recovery of MMP in WT KBM7 cells ([3]; antimycin exposure, FIG. 7B): WT cells did not
ATP levels of ATPIF1 null vs WT KBM7 cells following antimycin treatment ([4]; FIG. 3A): significantly lower levels of initial ATP compared to WT cells
ATP levels in IF1 KO KBM7 cells ([4]; antimycin exposure, FIG. 7B): decreased significantly
ATP levels in WT KBM7 cells ([4]; antimycin exposure, FIG. 7B): not in WT cells
glycolytic metabolites (DHAP, glyceraldehyde 3P, F6P), IF1 KO vs WT KBM7 cells [7]: more depletion of glycolytic metabolites
sensitivity of Malme-3M cells overexpressing ATPIF1 [8]: increased their sensitivity to antimycin
cellular ATP, ATPIF1−/− vs WT hepatocytes ([9]; antimycin 0.625 μM for 1.5 hours, FIG. 11B): greater decrease in cellular ATP
cell viability, ATPIF1−/− vs WT hepatocytes ([9]; antimycin 1.25 μM for 2 days, FIG. 11D): increased cell viability relative to WT hepatocytes
ΔΨm, ATPIF1−/− vs WT hepatocytes ([9]; antimycin 10 μM for 1.5 hours, FIG. 11C): greater increase in ΔΨm
